Experimental data as given in US9085541B2, “Process for producing imine compounds for combating invertebrate pests” (priority 2010, dated 2015).

System: tobacco budworm (Heliothis virescens)
Assay: Tobacco budworm (Heliothis virescens) I: 96-well microtiter plates with insect diet and eggs, egg and larval mortality
Format: in vivo
Settings: 120 h, read-out: mortality (egg and larval mortality, visually assessed)
Description: B.1 Tobacco Budworm (Heliothis virescens) I
For evaluating control of tobacco budworm (Heliothis virescens) the test unit consisted of 96-well-microtiter plates containing an insect diet and 15-25 H. virescens eggs. The compounds were formulated using a solution containing 75% v/v water and 25% v/v DMSO. Different concentrations of formulated compounds were sprayed onto the insect diet at 10 μl, using a custom built micro atomizer, at two replications. After application, microtiter plates are incubated at about 28±1° C. and about 80±5% relative humidity for 5 days. Egg and larval mortality is then visually assessed.

Cc1cc(C2=NOC(c3cc(Cl)cc(Cl)c3)(C(F)(F)F)C2)ccc1C=NNC(=O)NCC(F)(F)F (centres unmarked) [Compound 1-1, 4-[5-(3,5-dichloro-phenyl)-5-trifluoromethyl-4,5-dihydro-isoxazol-3-yl]-2-methyl-benzaldehyde-4-trifluoroethylsemicarbazone]
mortality at 2500 ppm: ≥ 75%

CC(=NNC(=O)NCC(F)(F)F)c1ccc(C2=NOC(c3cc(Cl)cc(Cl)c3)(C(F)(F)F)C2)cc1C (centres unmarked) [Compound 1-19, 1-{4-[5-(3,5-dichloro-phenyl)-5-trifluoromethyl-4,5-dihydro-isoxazol-3-yl]-2-methyl-phenyl}-ethanone-4-trifluoroethylsemicarbazone]
mortality at 2500 ppm: ≥ 75%
